Source: patent US20090274645A1, “GALL MIDGE PHEROMONE MIXTURE” (priority 2006, published 2009)
Entries after “also recorded” stand apart in the source; their conditions may differ. Like-named read-outs stand apart in the source and are kept apart here. Marks after values point to notes of the source that are not given here.

Tests used:
[1] = system: male Hessian flies (antennal responses); details: Hillbur et al unpublished, cited from earlier work; for elicit antennal responses in male Hessian flies: GC-EAD; for known to elicit antennal responses (mark in Table 2): earlier GC-EAD
[2] = system: male Hessian fly antennae; experiment: GC-EAD recordings of male antennal responses; design: species or system Mayetiola destructor; details: for antennal responses to compounds in female gland extract: GC-EAD of female Hessian fly extract (20 female equivalents); for antennal responses in males to synthetic compounds: GC-EAD, whole males mounted
Text: Coupled gas chromatographic-electroantennographic detection (GC-EAD, Arn et al 1975) was used to analyse female gland extracts. GC-EAD is an efficient tool to determine which compounds in an extract that the male antennae can perceive, by use of the highly specific olfactory receptor neurons. In a CC-EAD set-up (FIG. 3), the effluent of the GC column is split between the flame ionisation detector (FID) of the CC and the antennal detector (EAD). The GC separates the compounds in the extract over time and the compounds are detected by the FID. Simultaneously, the eluting compounds also pass the male antennae via a constant charcoal-filtered and humidified air stream. The male antennae are connected to two electrodes and, if the antennae perceive a compound, neural signals are generated and these signals are recorded as an electroantennogram (EAG). Since the olfactory receptors on the antennae are highly specific, they will more or less exclusively respond to the pheromone compounds in the extract. In addition to pheromone extracts, GC-EAD can be used to analyse all sorts of compound blends, e.g. host volatile collections and synthetic pheromone compounds. Irrespective of what kind of substances that are analysed, simultaneous recordings from the FID and the EAD give information on which compounds in the blend that are interesting for chemical identification and/or behavioural testing.
In addition to gland extracts, GC-EAD was used to analyse seven synthetic compounds (Table 2).
A Hewlett-Packard 6890 GC (Palo Alto, Calif., USA) with flame ionization detection and an Innowax column (30 m×0.25 mm ID, H-P) was used for the GC-EAD recordings. The column was programmed from 80° C./2 min to 220° C. at 10° C./min. Since male Hessian fly antennae are very sensitive to desiccation whole male bodies instead of excised antennae were mounted in an antenna holder (JoAC, Lund, Sweden) (FIG. 4). The antennal holder is made of Plexiglas with two wells connected to an amplifier by gold wire electrodes and males were mounted in the antennal holder as described by Hillbur et al (2001). The antennae were exposed to a charcoal-filtered and humidified air stream at a rate of ca 0.3 m/s through a glass tube (8 mm diameter). The signals from the antennae were amplified (JoAC) before they were recorded and analysed with ElectroAntennoGraphy software (Syntech, Hilversum, The Netherlands).

[3] = system: male Hessian flies; details: wind tunnel, Harris and Foster (1991); cited from earlier work
[4] = system: male Hessian flies; experiment: Y-tube olfactometer two-choice bioassays; assay type: in vivo, Mayetiola destructor
Text: The attractiveness of different synthetic pheromone blends and female gland extracts were studied in a mobile glass Y-tube olfactometer, (FIG. 5a). The arms of the Y-tube were 14 cm long, the stem 12.5 cm and the inner diameter was 2.2 cm. Charcoal-filtered and humidified air was pumped (Micro pump NMP 30 KNDC, 12 V, KNF Neuberger, Germany) through Teflon tubes and entered each arm via a custom made 9.5 cm long glass tube, (Humi Glas, Södra Sandby, Sweden) (FIG. 5b). […] In the centre of the glass tube was a glass rod (ca 1 cm long; 0.5 cm diameter) containing a centred small hole. During experiments, the stimulus was applied on a small piece of filter paper (1.5×0.5 cm) attached to a ca 1.5 cm long steel wire. The steel wire was placed in the hole of the glass rod to position the stimulus in the centre of the tube. […]
Six different two-choice bioassays were performed to evaluate differences in attractiveness of the main pheromone component (abbreviated: 1), 2S-E10-13:OAc, a three-component blend (abbreviated: 3) consisting of 2S-E10-13:OAc, 2S-E10-13:OH and 2S-13:OAc, and two different four-component blends, both consisting of the compounds included in the three-component blend but with either 2S-E8-E10-13:OAc (abbreviated: 4E) or 2S-Z8-E10-13:OAc (abbreviated: 4Z) added. […] Data from the […] bioassays were analysed by chi-square tests.

[5] = system: male Hessian flies; details: field study, main compound alone, cited from earlier work

## CCCCCCCCCCC[C@H](C)OC(C)=O [2S-13:OAc, (2S)-tridecan-2-yl acetate]
[1]
  elicit antennal responses in male Hessian flies: elicit antennal responses
  known to elicit antennal responses (mark in Table 2): (2S-13:OAc) *
[2]
  antennal responses to compounds in female gland extract: antennal responses
  antennal responses in males to synthetic compounds: elicited antennal responses; also recorded: responded

## CC/C=C/C=C/CCCCC[C@H](C)OC(C)=O [2S-E8-E10-13:OAc, (2S,8E,10E)-8,10-tridecadien-2-yl acetate]
[2]
  antennal responses in males to synthetic compounds: elicited antennal responses; also recorded: males respond; also recorded: responded

## CC/C=C/CCCCCCC[C@H](C)OC(C)=O [2S-E10-13:OAc, (2S,10E)-10-tridecen-2-yl acetate]
[1]
  elicit antennal responses in male Hessian flies: elicit antennal responses
  known to elicit antennal responses (mark in Table 2): (2S-E10-13:OAc) *
[3]
  males that contacted the odour source: 56%
[2]
  antennal responses to compounds in female gland extract: antennal responses
  antennal responses in males to synthetic compounds: elicited antennal responses; also recorded: responded
[4]; Y-tube, main component alone versus blank
  responding males attracted when compared to blank: over 90%
[4]; blank-1 bioassay, 10 ng, p<0.001
  attractiveness to males versus blank: significantly more attracted
[5]
  catch of male Hessian flies in the field: did not catch any male Hessian flies
[5]; listed as main component
  catch of male Hessian flies in the field: did not catch any males

## CC/C=C/CCCCCCC[C@H](C)O [2S-E10-13:OH, (2S,10E)-10-tridecen-2-ol]
[1]
  elicit antennal responses in male Hessian flies: elicit antennal responses
  known to elicit antennal responses (mark in Table 2): (2S-E10-13:OH) *
[2]
  antennal responses to compounds in female gland extract: antennal responses
  antennal responses in males to synthetic compounds: responded
[2]; listed as 2S-E0-13:OH
  antennal responses in males to synthetic compounds: elicited antennal responses

## CCCC/C=C/CCCCCCC[C@H](C)OC(C)=O [2S-E10-15:OAc, (2S,10E)-10-pentadecen-2-yl acetate]
[2]
  antennal responses in males to synthetic compounds: did not elicit antennal responses; also recorded: No responses were recorded

## CC/C=C/CCCCCCCCC[C@H](C)OC(C)=O [2S-E12-15:OAc, (2S,12E)-12-pentadecen-2-yl acetate]
[2]
  antennal responses in males to synthetic compounds: did not elicit antennal responses; also recorded: No responses were recorded

## CC/C=C/C=C\CCCCC[C@H](C)OC(C)=O [2S-Z8-E10-13:OAc, (2S,8Z,10E)-8,10-tridecadien-2-yl acetate]
[2]
  antennal responses in males to synthetic compounds: elicited antennal responses; also recorded: males respond; also recorded: responded

## CC/C=C\CCCCCCC[C@H](C)OC(C)=O [2S-Z10-13:OAc]
[2]
  antennal responses to compounds in female gland extract: antennal responses
  antennal responses in males to synthetic compounds: a response was recorded
[2]; listed as 23-Z10-13:OAc
  antennal responses to compounds in female gland extract: respond
